Columns and labels:
K14 mice [1] = assay: Brain GluCer and GluSph levels in K14 mouse model of type 2 Gaucher disease; type: in vivo
Protocol: Newborn mice received daily 5 mg/kg intraperitoneal injections of Quinuclidin-3-yl(2-(4′-fluoro-[1, l′-biphenyl]-3-yl)propan-2-yl)carbamate (hereinafter “GZ 161”) in a volume of 10 μl/gram of body weight starting at postnatal day 4. K14 mice and wild type littermates were humanely sacrificed at postnatal day 10 (pre-symptomatic) and at day 14 (humane endpoint) to evaluate glycosphingolipid (GSL) levels. Mice received a 150 mg/kg dose of pentobarbital (Euthasol, Virbac Inc, Fort Worth, Tex.) and were transcardially perfused with cold 0.9% NaCl solution. Brains were dissected and divided; one hemisphere was used for GSL analysis and the other was fixed in 4% paraformaldehyde for 96 hours and processed for histology.
(§1) Quantitative sphingolipid analysis was performed by liquid chromatography and tandem mass spectrometry (LC/MS/MS) as previously described in Merrill et al., Methods 36: 207-224 (2005). Briefly, 10 μl of brain tissue homogenate (tissue weight/water:100 mg/ml) was extracted with 1.00 ml of an organic solvent mixture (97% acetonitrile, 2% methanol, and 1% acetic acid, v/v) and vortexed vigorously for 10 min. Extracted sphingolipids (GluCer and GluSph) were directly separated by hydrophilic liquid chromatography (Atlantis HILIC column, Waters Corp.) and analyzed by triple quadrupole tandem mass spectrometry (API 4000, Applied Biosystems/MDS SCIEX) and compared with sphingolipid standards (Matreya, LLC; Pleasant Gap, Pa.)

WT mice = assay: In utero exposure: brain GluCer in newborn WT mice; type: in vivo, mouse
Protocol: (§2) To determine if further benefits could be achieved by prenatal exposure to GZ 161, a subset of pregnant K14 females received GZ 161 in food using a formulation calculated to provide 20 mg/kg/day during the final 5-7 days of gestation. Females receiving GZ 161 were switched to standard diet after delivery and the pups received daily IP injections of GZ 161 at a dose of 5 mg/kg (10 μl per gram of body weight) starting at P 1. A set of WT pups born to females receiving the drug or standard formula was sacrificed immediately after birth to determine whether in utero exposure to GZ 161 could reduce brain GSL levels.
as §1
Values shown correspond to means and error bars represent standard error of the mean. Comparisons between groups were analyzed by a one-way analysis of variance followed by Tukey's multiple comparison test. Comparison of substrate reduction in utero was analyzed by the unpaired t test with Welch's correction. Kaplan-Meier survival curves were analyzed using the log-rank test equivalent to the Mantel-Haenszel test. All statistical analyses were performed using GraphPad Prism v4.0 (GraphPad Software, San Diego, Calif.). Differences between group means with p<0.05 were considered significant.

K14 mice [2] = assay: Survival of K14 mice; type: in vivo, mouse; settings: GZ 161 5 mg/kg IP daily from P4, combination: plus ICV rhGC at P1, 2, 3
Protocol: as §2
An animal model of neuropathic Gaucher disease (nGD) identified as K14 were cryoanesthesized and received 2 μl bilateral intracerebroventricular (ICV) injections of either rhGC at 2 mg/ml or vehicle as previously described. (Cabrera-Salazar et al. (2010)) The injected pups were monitored for recovery and returned to the mother following the procedure.
K14 mice received daily intraperitoneal injections of GZ 161 at a dose of 5 mg/kg of body weight as described above. A separate cohort of animals also received ICV injections of GC at postnatal days 1, 2 and 3 followed by daily IP injections of GZ 161. […] All animals were monitored daily for the development of neurological complications. […] This time point was recorded as end of life and analyzed using Kaplan-Meier plots. […]

[3] = K14 mice, 5 mg/kg IP daily from P4, brains analyzed at P10
[4] = daily IP, compared to vehicle-treated K14 mice at the humane endpoint (14-15 days of age)

CC(C)(NC(=O)OC1CN2CCC1CC2)c1cccc(-c2ccc(F)cc2)c1 (stereo not shown) [GZ 161, Quinuclidin-3-yl(2-(4′-fluoro-[1,1′-biphenyl]-3-yl)propan-2-yl)carbamate]
brain GluCer level reduction (K14 mice [1]; [3]): ~70% | brain GluSph level reduction (K14 mice [1]; [3]): ~60% | brain GluCer level reduction (K14 mice [1]; [4]): > 60% | brain GluSph level reduction (K14 mice [1]; [4]): > 60% | symptom status of treated K14 mice (K14 mice [1]; daily IP, time point of brain analysis): asymptomatic | crossing the blood brain barrier (K14 mice [1]; inferred from reduction of brain glycosphingolipids after systemic (IP) administration): capable of crossing the blood brain barrier | decrease in GluCer levels in the newborn mouse brain (P0) (WT mice; WT dams treated, 20 mg/kg/day in food): ~5 fold | crossing the blood/placental barrier (WT mice; inferred from reduced GluCer in newborn brain after dosing pregnant WT mice): appears to cross the blood/placental barrier | GluCer load in whole brain homogenates at birth (P0) (WT mice; pregnant WT mice, 20 mg/kg/day in food): reduces the GluCer load | median lifespan (K14 mice [2]): 18 days
